# Assay results from patent US20240366471A1, “MULTIDOSE ANTIBODY DRUG PRODUCTS USING PHENOL OR BENZYL ALCOHOL” (Regeneron Pharmaceuticals, Inc., priority 2023, published 2024).
# Experiments:
# [1] = Compatibility of preservatives with mAb formulations; format: physicochemical; conditions: preservative in mAb formulations, incompatibility seen as turbidity
# [2] = Purity by SE-UPLC (% HMW, % Main, % LMW) on storage; format: physicochemical; conditions: stress conditions (40° C. and 45° C.)
# Description: To determine the effect of preservatives on high molecular weight (HMW) complex formation for different mAbs formulations, various antibodies were incubated at 40° C. over the course of 3 months with or without tested preservatives.
# To determine the effect of preservatives on high molecular weight (HMW) complex formation for different mAbs formulations, various antibodies were incubated at 25° C. over the course of 6 months with or without tested preservatives.
# [3] = Overall storage stability of mAb formulations with preservatives; conditions: all storage conditions
# Description: Storage stability of the Fc-containing proteins were assessed at various temperatures, as will be described in further detail, including at 5° C., 25° C., 40° C., and 45° C., to enable kinetic degradation profiling, if applicable.
# The sample formulations with preservatives were compared to the control formulations without preservatives to evaluate the effect of preservatives on protein stability.
compound,measurement,setting,value
Cc1cccc(O)c1 [m-cresol],compatibility with the mAb formulations,[1],not compatible
same,compatibility with the mAb formulations,[1]; listed as cresol,incompatible
OCc1ccccc1 [benzyl alcohol],mAb aggregation detected by SE-UPLC (in words),[2],higher mAb aggregation
Oc1ccccc1 [phenol],destabilizing effect of preservative on mAbs (in words),[3],least destabilization effect
same,destabilizing effect of preservative on mAbs (in words),[3]; listed as Phenol,only minimal destabilizing effect
